According to patent US12565485B2, “Solid forms of 1-((S)-4-((R)-7-(6-amino-4-methyl-3-(trifluoromethyl)pyridin-2-yl)-6-chloro-8-fluoro-2-(((s)-1-methylpyrrolidin-2-yl)methoxy)quinazolin-4-yl)-3-methylpiperazin-1-yl)prop-2-en-1-one” (Genentech, Inc., priority 2022, dated 2026):

Assays:
Assay type in all cases: physicochemical
[1] = Slow cooling; conditions: Compound A, 50° C. to 5° C. at 0.1° C./min
Protocol: Slow cooling Compound A. Slow cooling experiments were conducted in four solvent systems. […] The suspension was then heated to 50° C., equilibrated for about 2 hr and filtered to a new vial using a seal membrane (PTFE, pore size of 0.45 μm). Filtrates were slowly cooled down to 5° C. at a rate of 0.1° C./min. The obtained solids were kept isothermal at 5° C. before isolation for XRPD analysis.

[2] = VH-XRPD analysis / transitions of forms at varying relative humidity; conditions: ambient humidity levels 40%
Source text: FIG. 19. The sample then reverts to the original form upon reaching 30% RH. […] Transitions of Forms of Compound A at varying RH.

[3] = Anti-solvent addition; conditions: Compound A
Protocol: Anti-solvent addition. A total of 12 anti-solvent addition experiments were carried out. […] The obtained precipitate was isolated for XRPD analysis.
Anti-solvent addition Compound A. A total of 14 anti-solvent addition experiments were carried out. […] The obtained precipitate was isolated for XRPD analysis.

[4] = Solid vapor diffusion; conditions: RT; for Result: Compound A
Protocol: Solid vapor diffusion Compound A. Solid vapor diffusion experiments were conducted using 12 different solvents. […] The 20-mL vial was sealed with a cap and kept at RT allowing solvent vapor to interact with the sample.

Result ([1]; ACN): Compound A Form A
Result ([1]; Acetone): Compound A Form A
Result ([1]; IPA): Compound A Form A
Result ([1]; MEK): Compound A Form A
Form after exposure to ambient humidity [2]: Compound A Form D was formed
Result ([3]; solvent 2-MeTHF, anti-solvent n-Heptane): Gel
Result ([3]; solvent DCM, anti-solvent MTBE): Compound A Form A
Result ([3]; solvent DCM, anti-solvent Toluene): Compound A Form B
Result ([3]; solvent DCM, anti-solvent n-Heptane): Compound A Form A
Result ([3]; solvent DMSO, anti-solvent EtOAc): Clear
Result ([3]; solvent EtOH, anti-solvent Anisole): Clear solution
Result ([3]; solvent EtOH, anti-solvent MTBE): Gel
Result ([3]; solvent EtOH, anti-solvent n-Heptane): Compound A Form A
Result ([3]; solvent MeOH, anti-solvent MTBE): Gel
Result ([3]; solvent MeOH, anti-solvent Toluene): Compound A Form A
Result ([3]; solvent THF, anti-solvent EtOAc): Compound A Form A
Result ([3]; solvent THF, anti-solvent MTBE): Compound A Form A
Result ([3]; solvent THF, anti-solvent Toluene): Compound A Form A
Result ([3]; solvent THF, anti-solvent n-Heptane): Compound A Form A
Result ([4]; 1,4-Dioxane vapor): Compound A Form A
Result ([4]; ACN vapor): Compound A Form A
Result ([4]; Acetone vapor): Compound A Form A
Result ([4]; DCM vapor): Compound A Form A
Result ([4]; DMF vapor): Compound A Form A
Result ([4]; DMSO vapor): Compound A Form A
Result ([4]; EtOAc vapor): Compound A Form A
Result ([4]; EtOH vapor): Compound A Form A
Result ([4]; H2O vapor): Compound A Form A
Result ([4]; IPA vapor): Compound A Form A
Result ([4]; MeOH vapor): Compound A Form A
Result ([4]; THF vapor): Compound A Form A
Solid vapor diffusion result (XRPD form) ([4]; 12 different solvents): Compound A Form A was obtained
SMILES: C=CC(=O)N1CCN(c2nc(OC[C@@H]3CCCN3C)nc3c(F)c(-c4nc(N)cc(C)c4C(F)(F)F)c(Cl)cc23)[C@@H](C)C1 [Compound A Form A]
